The results in this text go back to patent US8476298B2 (Exelixis, Inc., priority 2003, dated 2013).

Structures are written as SMILES. Read-outs that look alike come from different tables or passages of the source.

Broadly, the IC50 is the concentration needed to halve the response being measured.

For test [1], the target named is T1, c-Met (baculovirus expressed human c-Met kinase domain P948-S1343) (Homo sapiens, UniProt P08581).
T1 construct: human c-Met kinase domain P948-S1343; host or cells: baculovirus expression
T1 sequence (P08581 1011-1343 limits assumed): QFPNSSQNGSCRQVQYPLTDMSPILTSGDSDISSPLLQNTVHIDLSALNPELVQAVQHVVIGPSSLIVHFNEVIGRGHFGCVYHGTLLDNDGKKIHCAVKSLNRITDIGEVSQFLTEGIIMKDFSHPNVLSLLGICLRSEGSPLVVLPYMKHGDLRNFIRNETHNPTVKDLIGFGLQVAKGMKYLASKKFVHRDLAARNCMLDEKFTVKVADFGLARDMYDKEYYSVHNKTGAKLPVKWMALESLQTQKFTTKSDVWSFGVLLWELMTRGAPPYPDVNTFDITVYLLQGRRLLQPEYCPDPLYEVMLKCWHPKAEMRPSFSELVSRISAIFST
Kind of test: c-Met Luciferase-Coupled Chemiluminescent Kinase assay (LCCA).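 Note: kinase activity read as percent ATP left after reaction, by luciferase-luciferin chemiluminescence, with 1 µM ATP and 1 µM poly-EY substrate, 2 h at ambient temperature, 10-point dose-response.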 The test is classed as biochemical.

The target of test [2] is T2, Flt-3 (baculovirus expressed human Flt-3 kinase domain R571-S993) (Homo sapiens, UniProt P36888).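 Note: Luciferase-coupled chemiluminescent kinase assay, activity read as percent ATP left after a 3 h reaction at room temperature, ATP near KM, 10-point dose-response.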
T2 construct: human Flt-3 kinase domain R571-S993; host or cells: baculovirus expression
T2 sequence (P36888 571-993): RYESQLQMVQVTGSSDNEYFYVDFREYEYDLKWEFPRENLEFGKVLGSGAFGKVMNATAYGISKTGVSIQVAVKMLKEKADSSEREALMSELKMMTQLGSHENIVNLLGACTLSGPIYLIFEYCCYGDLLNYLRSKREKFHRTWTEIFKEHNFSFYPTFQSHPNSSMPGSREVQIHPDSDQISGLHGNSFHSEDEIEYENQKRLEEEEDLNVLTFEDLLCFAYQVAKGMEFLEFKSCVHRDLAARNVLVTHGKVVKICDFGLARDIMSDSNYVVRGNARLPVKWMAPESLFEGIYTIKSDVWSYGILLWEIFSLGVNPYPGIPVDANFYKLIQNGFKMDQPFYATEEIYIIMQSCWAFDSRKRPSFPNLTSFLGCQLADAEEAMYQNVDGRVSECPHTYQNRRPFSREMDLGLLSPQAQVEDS
As to the kind of experiment: biochemical. Particulars: read-out: flt3 IC50.

Test [3] concerns the target T3, KDR (baculovirus expressed human KDR kinase domain D807-V1356) (Homo sapiens, UniProt P35968).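 Note: Luciferase-coupled chemiluminescent kinase assay, activity read as percent ATP left after 4 h reaction at ambient temperature, ATP near KM, 10-point dose-response in 384-well plates.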
T3 construct: human KDR kinase domain D807-V1356; host or cells: baculovirus expression
As to the kind of experiment: biochemical.

The target of test [4] is T4, Flt-4 (baculovirus expressed human Flt-4 kinase domain D725-R1298) (Homo sapiens, UniProt P35916).
T4 construct: human Flt-4 kinase domain D725-R1298; host or cells: baculovirus expression
T4 sequence (P35916 725-1298 isoform P35916-1): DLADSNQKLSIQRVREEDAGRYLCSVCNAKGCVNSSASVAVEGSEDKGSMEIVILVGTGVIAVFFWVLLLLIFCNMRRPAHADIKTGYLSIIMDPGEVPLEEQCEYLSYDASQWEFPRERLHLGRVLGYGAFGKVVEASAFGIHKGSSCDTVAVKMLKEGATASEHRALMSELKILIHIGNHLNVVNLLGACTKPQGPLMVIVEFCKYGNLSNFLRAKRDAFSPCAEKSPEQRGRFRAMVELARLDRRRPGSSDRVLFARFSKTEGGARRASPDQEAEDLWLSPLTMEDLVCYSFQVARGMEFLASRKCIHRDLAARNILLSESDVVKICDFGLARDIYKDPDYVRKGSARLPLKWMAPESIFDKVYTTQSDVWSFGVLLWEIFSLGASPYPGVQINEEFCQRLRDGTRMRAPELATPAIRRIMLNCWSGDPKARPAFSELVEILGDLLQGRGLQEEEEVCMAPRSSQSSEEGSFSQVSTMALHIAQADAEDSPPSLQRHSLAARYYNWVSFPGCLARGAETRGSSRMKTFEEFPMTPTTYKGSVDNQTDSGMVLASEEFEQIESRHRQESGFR
As to the kind of experiment: flt-4 Alphascreen Tyrosine Kinase assay.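 Note: AlphaScreen chemiluminescence read-out of biotinylated poly(Glu,Tyr) 4:1 phosphorylation via streptavidin donor and PY100 anti-phosphotyrosine acceptor beads, ATP near KM, 1 hr kinase reaction, 10-point dose-response.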 Format: biochemical. Particulars: read-out: flt4 IC50. In general terms: In Alpha technology, singlet oxygen from a donor bead excites a nearby acceptor bead.

The target of test [5] is c-Kit kinase (Homo sapiens, UniProt P10721). Kind of test: c-Kit AlphaScreen kinase assay.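 Note: c-Kit kinase phosphorylating biotinylated poly(Glu,Tyr), ATP near its KM, 1 h reaction at ambient temperature, AlphaScreen chemiluminescence with streptavidin donor and anti-phosphotyrosine acceptor beads, 10-point inhibitor titration.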 Format: biochemical.
c-Kit kinase, sequence (P10721 26-976): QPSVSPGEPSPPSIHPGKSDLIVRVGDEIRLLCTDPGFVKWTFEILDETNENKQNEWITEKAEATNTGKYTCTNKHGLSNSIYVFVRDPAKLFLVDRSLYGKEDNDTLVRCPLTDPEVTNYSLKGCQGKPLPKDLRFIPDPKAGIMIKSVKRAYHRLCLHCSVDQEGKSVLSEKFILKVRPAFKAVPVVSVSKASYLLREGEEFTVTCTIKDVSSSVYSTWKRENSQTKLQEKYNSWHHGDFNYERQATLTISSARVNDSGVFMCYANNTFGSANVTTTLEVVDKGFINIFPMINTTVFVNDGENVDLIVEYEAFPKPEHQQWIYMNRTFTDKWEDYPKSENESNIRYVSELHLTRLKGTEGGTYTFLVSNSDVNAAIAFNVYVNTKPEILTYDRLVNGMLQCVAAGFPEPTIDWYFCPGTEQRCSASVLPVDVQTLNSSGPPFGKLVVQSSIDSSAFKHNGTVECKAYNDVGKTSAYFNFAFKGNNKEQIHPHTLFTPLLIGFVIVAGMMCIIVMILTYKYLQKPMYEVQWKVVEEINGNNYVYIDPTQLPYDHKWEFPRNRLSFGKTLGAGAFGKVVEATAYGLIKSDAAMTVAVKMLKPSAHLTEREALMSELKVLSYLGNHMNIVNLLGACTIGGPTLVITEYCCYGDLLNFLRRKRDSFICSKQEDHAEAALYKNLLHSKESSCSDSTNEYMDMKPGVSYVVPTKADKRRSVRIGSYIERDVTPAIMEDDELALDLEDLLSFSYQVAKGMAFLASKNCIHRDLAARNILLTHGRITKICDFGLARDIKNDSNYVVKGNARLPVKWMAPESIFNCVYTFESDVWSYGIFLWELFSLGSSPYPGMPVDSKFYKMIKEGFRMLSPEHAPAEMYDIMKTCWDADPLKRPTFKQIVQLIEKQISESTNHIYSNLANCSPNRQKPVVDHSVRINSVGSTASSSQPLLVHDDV
Protocol: Kinase activity and compound inhibition are investigated using one or more of the three assay formats described below. The ATP concentrations for each assay are selected to be close to the Michaelis-Menten constant (KM) for each individual kinase. Dose-response experiments are performed at 10 different inhibitor concentrations in a 384-well plate format.
AlphaScreen™ (Perkin Elmer) technology is a proximity assay employing microparticles. Singlet oxygen derived from a donor bead following laser excitation results in chemiluminescence when in proximity (100 Å) to an acceptor bead due to biomolecular interactions.
c-Kit biochemical activity was assessed using AlphaScreen™ (Perkin Elmer) technology, described above. Test compounds, ATP, biotinylated poly(Glu, Tyr) and c-Kit kinase were combined in a volume of 20 μL in a 384-well white, medium binding microtiter plate (Greiner). Reaction mixtures were incubated for 1 hr at ambient temperature. […] After 16 hr incubation at ambient temperature plates were read using an AlphaQuest reader (Perkin Elmer).
Setting [6] is: Table 4, inhibition as IC50 class.

T3 sequence (P35968 807-1356): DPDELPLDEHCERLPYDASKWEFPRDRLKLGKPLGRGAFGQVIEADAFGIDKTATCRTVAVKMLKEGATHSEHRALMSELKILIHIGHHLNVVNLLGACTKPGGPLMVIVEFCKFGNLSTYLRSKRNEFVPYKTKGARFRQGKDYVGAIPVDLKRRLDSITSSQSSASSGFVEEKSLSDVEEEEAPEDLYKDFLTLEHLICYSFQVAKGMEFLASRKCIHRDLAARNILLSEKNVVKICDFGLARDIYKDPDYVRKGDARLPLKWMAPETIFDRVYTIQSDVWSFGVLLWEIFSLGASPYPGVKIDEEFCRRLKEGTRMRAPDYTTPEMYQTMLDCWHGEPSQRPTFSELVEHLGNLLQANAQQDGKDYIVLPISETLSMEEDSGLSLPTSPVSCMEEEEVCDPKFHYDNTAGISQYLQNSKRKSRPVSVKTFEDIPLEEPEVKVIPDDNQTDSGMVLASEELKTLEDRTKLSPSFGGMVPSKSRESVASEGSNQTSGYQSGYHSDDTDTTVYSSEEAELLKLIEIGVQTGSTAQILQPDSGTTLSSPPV

In the case of `COc1cc2nccc(Oc3ccc(NC(=O)CC(=O)Nc4ccc(F)cc4)cc3)c2cc1OC` [Example 288, N-(4-{[6,7-bis(methyloxy)quinolin-4-yl]oxy}phenyl)-N′-(4-fluorophenyl)propanediamide], the concentration for half-maximal inhibition (IC50) in test [1], in test [2], in test [3], in test [4] and in test [5] was < 50 nM each time.

With `COc1cc2c(Oc3ccc(NC(=O)C(=O)NCc4cccc(Cl)c4)cc3F)ccnc2cc1OCC1CCNCC1` [Example 243, N-[(3-chlorophenyl)methyl]-N′-[3-fluoro-4-({6-(methyloxy)-7-[(piperidin-4-ylmethyl)oxy]quinolin-4-yl}oxy)phenyl]ethanediamide], the IC50 in test [1] (setting [6]) is < 50 nM; in test [2] (setting [6]), 50 to 500 nM; in test [3] (setting [6]) it was < 50 nM; in test [4] (setting [6]) it was 50 to 500 nM; in test [5] (setting [6]) it was < 50 nM.

`COCCNC(=O)C(=O)Nc1ccc(Oc2ccnc3cc(OCC4CCNCC4)c(OC)cc23)c(F)c1` [Example 296, N-[3-fluoro-4-({6-(methyloxy)-7-[(piperidin-4-ylmethyl)oxy]quinolin-4-yl}oxy)phenyl]-N′-[2-(methyloxy)ethyl]ethanediamide]: the IC50 in test [1] was 50 to 500 nM; in test [2], 50 to 500 nM; in test [3] it was 50 to 500 nM; in test [4], 500 to 5000 nM; in test [5] it was 50 to 500 nM.

As for `CCN(CC)CCCOc1cc2nccc(Oc3ccc(NC(=O)C4(C(=O)Nc5ccc(F)cc5)CC4)cc3F)c2cc1OC` [Example 336, N-(4-{[7-{[3-(diethylamino)propyl]oxy}-6-(methyloxy)quinolin-4-yl]oxy}-3-fluorophenyl)-N′-(4-fluorophenyl)cyclopropane-1,1-dicarboxamide], the IC50 in test [1], in test [2], in test [3], in test [4] and in test [5] was < 50 nM throughout.

`CC[C@@H](NC(=O)C(=O)Nc1ccc(Oc2ccnc3cc(OCC4CCNCC4)c(OC)cc23)c(F)c1)c1ccccc1` [Example 254, N-[3-fluoro-4-({6-(methyloxy)-7-[(piperidin-4-ylmethyl)oxy]quinolin-4-yl}oxy)phenyl]-N′-[(1R)-1-phenylpropyl]ethanediamide]: the IC50 in test [1] (setting [6]) is < 50 nM; in test [2] (setting [6]) it was 50 to 500 nM; in test [3] (setting [6]), 50 to 500 nM; in test [4] (setting [6]), 50 to 500 nM; in test [5] (setting [6]), 50 to 500 nM.

For `COc1cc2c(Oc3ccc(NC(=O)C(=O)NCC(c4ccccc4)c4ccccc4)cc3F)ccnc2cc1OCC1CCNCC1` [Example 227, N-(2,2-diphenylethyl)-N′-[3-fluoro-4-({6-(methyloxy)-7-[(piperidin-4-ylmethyl)oxy]quinolin-4-yl}oxy)phenyl]ethanediamide], the IC50 in test [1] (setting [6]) is < 50 nM; in test [2] (setting [6]), < 50 nM; in test [3] (setting [6]), 50 to 500 nM; in test [4] (setting [6]), 50 to 500 nM; in test [5] (setting [6]), 50 to 500 nM.

Consider `COc1cc2c(Oc3ccc(NC(=O)C(=O)Nc4ccccc4)cc3F)ccnc2cc1OCC1CCN(C)CC1` [Example 259, N-{3-fluoro-4-[(6-(methyloxy)-7-{[(1-methylpiperidin-4-yl)methyl]oxy}quinolin-4-yl)oxy]phenyl}-N′-phenylethanediamide], for which the IC50 was < 50 nM in test [1] (setting [6]); 500 to 5000 nM in test [2] (setting [6]); 50 to 500 nM in test [3] (setting [6]); 50 to 500 nM in test [4] (setting [6]); 500 to 5000 nM in test [5] (setting [6]).

`COc1cc2c(Oc3ccc(NC(=O)C4(C(=O)Nc5ccc(F)cc5)CC4)cc3F)ccnc2cc1OCCCN1CCCCC1` [Example 313, N-[3-fluoro-4-({6-(methyloxy)-7-[(3-piperidin-1-ylpropyl)oxy]quinolin-4-yl}oxy)phenyl]-N′-(4-fluorophenyl)cyclopropane-1,1-dicarboxamide]: the IC50 in test [1], in test [2], in test [3], in test [4] and in test [5] was < 50 nM in each case.

Take `COc1cc2nccc(Oc3cc(Cl)c(NC(=O)C4(C(=O)Nc5ccc(F)cc5)CC4)cc3F)c2cc1OC` [Example 337, N-(4-{[6,7-bis(methyloxy)quinolin-4-yl]oxy}-2-chloro-5-fluorophenyl)-N′-(4-fluorophenyl)cyclopropane-1,1-dicarboxamide]: the IC50 was < 50 nM in test [1]; 500 to 5000 nM in test [2]; 50 to 500 nM in test [3]; 500 to 5000 nM in test [4]; 50 to 500 nM in test [5].

With `COc1cc2c(Oc3ncc(NC(=O)C4(C(=O)Nc5ccc(F)cc5)CC4)cc3Cl)ccnc2cc1OCc1ccccc1` [Example 309, N-[5-chloro-6-({6-(methyloxy)-7-[(phenylmethyl)oxy]quinolin-4-yl}oxy)pyridin-3-yl]-N′-(4-fluorophenyl)cyclopropane-1,1-dicarboxamide], the IC50 is < 50 nM in test [1]; 50 to 500 nM in test [2]; 500 to 5000 nM in test [3]; 500 to 5000 nM in test [4]; 500 to 5000 nM in test [5].

Take `O=C(Nc1ccc(F)cc1)C1(C(=O)Nc2ccc(Oc3ccnc4cc(Cl)ccc34)cc2)CC1` [Example 308, N-{4-[(7-chloroquinolin-4-yl)oxy]phenyl}-N′-(4-fluorophenyl)cyclopropane-1,1-dicarboxamide]: the IC50 in test [1] was < 50 nM; in test [2], 500 to 5000 nM; in test [3] it was < 50 nM; in test [4], 50 to 500 nM; in test [5], 50 to 500 nM.

With `COc1cc2nccc(Oc3ncc(NC(=O)C(C)(C)C(=O)Nc4ccc(F)cc4)cc3Cl)c2cc1OC` [Example 292, N-(6-{[6,7-bis(methyloxy)quinolin-4-yl]oxy}-5-chloropyridin-3-yl)-N′-(4-fluorophenyl)-2,2-dimethylpropanediamide], the IC50 is 50 to 500 nM in test [1]; < 50 nM in test [2]; 50 to 500 nM in test [3]; 50 to 500 nM in test [4]; 50 to 500 nM in test [5].

Regarding `COc1cc2nccc(Oc3ccc(NC(=O)C4(C(=O)Nc5ccc(F)cc5)CC4)c(C)n3)c2cc1OC` [Example 306, N-(6-{[6,7-bis(methyloxy)quinolin-4-yl]oxy}-2-methylpyridin-3-yl)-N′-(4-fluorophenyl)cyclopropane-1,1-dicarboxamide], the IC50 in test [1] is < 50 nM; in test [2], 500 to 5000 nM; in test [3], 50 to 500 nM; in test [4], 50 to 500 nM; in test [5] it was 50 to 500 nM.

Regarding `COc1cc2c(Oc3ccc(NC(=O)C(=O)N[C@@H]4CCCc5ccccc54)cc3F)ccnc2cc1OCC1CCNCC1` [Example 218, N-[3-fluoro-4-({6-(methyloxy)-7-[(piperidin-4-ylmethyl)oxy]quinolin-4-yl}oxy)phenyl]-N′-[(1R)-1,2,3,4-tetrahydronaphthalen-1-yl]ethanediamide], the half-maximal inhibitory concentration (IC50) in test [1] (setting [6]) was < 50 nM; in test [2] (setting [6]), 50 to 500 nM; in test [3] (setting [6]), 50 to 500 nM; in test [4] (setting [6]), < 50 nM; in test [5] (setting [6]), 50 to 500 nM.

Take `COc1cc2c(Oc3ccc(NC(=O)C(=O)NCc4ccccn4)cc3F)ccnc2cc1OCC1CCNCC1` [Example 274, N-[3-fluoro-4-({6-(methyloxy)-7-[(piperidin-4-ylmethyl)oxy]quinolin-4-yl}oxy)phenyl]-N′-(pyridin-2-ylmethyl)ethanediamide]: the IC50 is < 50 nM in test [1] (setting [6]); 50 to 500 nM in test [2] (setting [6]); 50 to 500 nM in test [3] (setting [6]); 50 to 500 nM in test [4] (setting [6]); 50 to 500 nM in test [5] (setting [6]).

Turning to `COc1cc2c(Oc3ccc(NC(=O)C(=O)NCC(C)c4ccccc4)cc3F)ccnc2cc1OCC1CCNCC1` (stereo not shown) [Example 229, N-[3-fluoro-4-({6-(methyloxy)-7-[(piperidin-4-ylmethyl)oxy]quinolin-4-yl}oxy)phenyl]-N′-(2-phenylpropyl)ethanediamide], the IC50 in test [1] (setting [6]), in test [2] (setting [6]), in test [3] (setting [6]), in test [4] (setting [6]) and in test [5] (setting [6]) was < 50 nM throughout.

With `CCN(CC)CCOc1cc2nccc(Oc3ccc(NC(=O)C4(C(=O)Nc5ccc(F)cc5)CCC4)cc3F)c2cc1OC` [Example 307, N-(4-{[7-{[2-(diethylamino)ethyl]oxy}-6-(methyloxy)quinolin-4-yl]oxy}-3-fluorophenyl)-N′-(4-fluorophenyl)cyclobutane-1,1-dicarboxamide], the IC50 in test [1] was < 50 nM; in test [2] it was 50 to 500 nM; in test [3] it was < 50 nM; in test [4], < 50 nM; in test [5], < 50 nM.
